The target in test [1] is cAMP-dependent protein kinase (Oryctolagus cuniculus, UniProt Q95J97). Kind of test: Inhibition Assay. The following applies: pH 7.5. An excerpt:
Cyclic AMP-dependent protein kinase (PKA) enzyme inhibition assay using purified recombinant C subunit of PKA (catalytic (C) subunit (cPKA)) with holoenzyme purified from rabbit muscle.

In test [2] the target is Protein kinase C beta type (Rattus norvegicus, UniProt P68403). Kind of test: Inhibition Assay. The following applies: 30 °C.

Structures are written as SMILES. Where a name gives a salt, the structure may show the parent alone.

As a reminder, the Ki is the dissociation constant of the complex between target and ligand, obtained from inhibition or displacement. Low readings indicate tighter binding, high ones weaker binding. The IC50 is the concentration that inhibits the measured activity by half.

Sequence of Protein kinase C beta type (P68403 whole entry): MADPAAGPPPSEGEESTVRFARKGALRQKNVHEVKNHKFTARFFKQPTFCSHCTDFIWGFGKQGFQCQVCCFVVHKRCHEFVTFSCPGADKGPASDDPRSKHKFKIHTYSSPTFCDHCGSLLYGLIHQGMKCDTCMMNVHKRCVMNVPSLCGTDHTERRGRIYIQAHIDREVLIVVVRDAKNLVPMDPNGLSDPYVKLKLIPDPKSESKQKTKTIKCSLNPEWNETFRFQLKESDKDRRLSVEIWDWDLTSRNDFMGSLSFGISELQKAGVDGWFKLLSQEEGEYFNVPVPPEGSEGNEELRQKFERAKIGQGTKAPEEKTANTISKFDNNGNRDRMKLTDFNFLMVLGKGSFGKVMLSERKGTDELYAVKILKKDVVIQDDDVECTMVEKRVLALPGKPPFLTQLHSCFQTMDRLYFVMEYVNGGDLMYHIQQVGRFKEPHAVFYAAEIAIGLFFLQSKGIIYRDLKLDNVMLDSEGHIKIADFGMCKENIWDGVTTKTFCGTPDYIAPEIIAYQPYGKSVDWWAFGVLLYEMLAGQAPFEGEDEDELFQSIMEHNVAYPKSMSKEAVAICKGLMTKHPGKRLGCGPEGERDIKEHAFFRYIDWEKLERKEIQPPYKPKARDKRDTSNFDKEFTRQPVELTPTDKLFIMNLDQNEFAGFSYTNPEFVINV

`CN[C@@H]1C[C@H]2O[C@@](C)([C@@H]1OC)n1c3ccccc3c3c4c(c5c6ccccc6n2c5c31)C(=O)NC4` showed a Ki in test [1] of 0.035 µM.

In test [2] (pH 7.5), `O=C(N[C@@H]1CNCCC[C@H]1OC(=O)c1cc(O)c(C(=O)c2ccccc2C(=O)O)c(O)c1)c1ccc(O)cc1` displayed an IC50 of 0.834 µM and a Ki of 0.64 µM. In test [1] (30 °C), this molecule displayed a concentration for half-maximal inhibition (IC50) of 0.0063 µM and a Ki of 0.0039 µM.

As for `O=C(N[C@@H]1CNCCC[C@H]1OC(=O)c1ccc(C(=O)c2c(O)cccc2C(=O)O)cc1)c1ccc(O)cc1` [4'',6''-Dideoxybalanol, 6], the IC50 in test [2] (pH 7.5) worked out at 0.111 µM; in test [1] (30 °C), 0.0055 µM. The Ki was 0.08 µM in test [2] (pH 7.5) and 0.0034 µM in test [1] (30 °C).

Consider `O=C(N[C@@H]1CNCCC[C@H]1OC(=O)c1cc(O)c(C(=O)c2c(O)cccc2C(=O)O)c(O)c1)c1ccccc1` [5'-Deoxybalanol, 7], for which the IC50 stood at 0.095 µM in test [2] (pH 7.5) and 0.0057 µM in test [1] (30 °C). Also, the inhibition constant (Ki) in test [2] (pH 7.5) was determined as 0.069 µM; in test [1] (30 °C) it was 0.0035 µM.

In test [2], `O=C(N[C@@H]1CNCCC[C@H]1OC(=O)c1cc(O)c(C(=O)c2ccccc2O)c(O)c1)c1ccc(O)cc1` [14''-Decarboxybalanol hydrochloride, 5] registered an IC50 of 6.9 µM and a Ki of 5 µM. In test [1] (30 °C), this molecule showed an IC50 of 0.018 µM and a Ki of 0.011 µM.

In test [2], `O=C(N[C@@H]1CNCCC[C@H]1OC(=O)c1cc(O)c(C(=O)c2c(O)cccc2C(=O)O)c(O)c1)c1ccc(O)cc1` [Acyclic Balanol Analog (-)-1] had a Ki of 0.0053 µM.

`COC(=O)c1cc(O)c(C(=O)c2c(O)cccc2C(=O)O)c(O)c1` [Benzophenone fragment, 2]: the Ki in test [2] (pH 7.5) was greater than 1000 µM; in test [1] (30 °C), greater than 10 µM.

`O=S(ONCCNC/C=C/c1ccc(Br)cc1)c1cccc2cnccc12` (stereo unspecified) [H-89, 10]: the Ki in test [2] was determined as 31.7 µM; in test [1] it was 0.048 µM.

On to `O=C(N[C@@H]1CNCCC[C@H]1O)c1ccc(O)cc1` [Hexahydroazepine, 3], for which the Ki in test [2] is greater than 1000 µM; in test [1] it was greater than 10 µM.

As for `CCCCCCOC(=O)[C@@]1(O)CC2O[C@]1(C)n1c3ccccc3c3c4c(c5c6ccccc6n2c5c31)C(=O)NC4` [KT5720, 9], the Ki in test [2] is greater than 2 µM; in test [1] it was 0.056 µM.

The values above are taken from BindingDB's records for doi:10.1016/1074-5521(95)90124-8 (University of California San Diego, 1995).
